Data reported in patent US6051570A, “Benzimidazole derivatives as antiulcer agents, process for their preparation and pharmaceutical compositions containing them” (Dr. Reddy's Research Foundation, priority 1998, dated 2000).
Where a name gives a salt, the structure may show the parent alone. Each block holds one compound with its values, some of them ahead of it.

Experiments:
[1] = test system: gastric acid secretion; assay: Gastric acid antisecretory activity in pylorus ligated rat model (intraduodenal); assay type: in vivo, Male wistar rats; details: for inhibition in vivo at 10 mg/kg: Rattus norvegicus; for inhibition in vivo at 10 mg/kg / ED50: intraduodenal, 2 h; for ED50: pylorus ligated rat, read-out: ED50 value (in vivo experiment, gastric acid secretion)
Procedure: B) Gastric acid antisecretory activity The inhibitory effect on gastric acid secretion is determined in pylorus ligated rat model according to Shay et al. ([…]., Gruenstein, H. & Siplet, H. Gastroenterology 1945, 5:43). Male wistar rats weighing about 150-200 g fasted for 24 h with ad libitum are used. Under ether anaesthesia the laparotomy is performed and pylorus portion of the stomach is isolated and ligated with surgical suture. The test drug/vehicle is administered intraduodenally and the abdominal incision is closed using Michael clips. After 2 h, the animals were sacrificed with excess ether anaesthesia and stomach is removed. The gastric contents are collected and centrifuged at 10,000 rpm for 10 min. The volume of the gastric juice is measured and acid concentration is estimated by titrating an aliquot of the gastric juice against 0.004N NaOH using phenolphthalein as the indicator. Total acid output is expressed as milliequivalents/L/kg/h and volume of gastric juice as mL/kg/h. The ED50 value for the test compound is calculated according to graphical method. Omeprazole is used as a standard compound.

[2] = target: T1, H^+ /K^+ - ATPase (Oryctolagus cuniculus, UniProt P27112); assay: H+/K+-ATPase inhibition (rabbit gastric mucosa enzyme, Pi liberated by ATP hydrolysis); assay type: biochemical; details: pH 6.5, 37° C., 15 min
T1 construct: Rabbit gastric mucosa containing H^+ /K^+ - ATPase activity is isolated; from tissue; host or cells: rabbit gastric fundic mucosa, membrane fraction (sucrose-step ultracentrifugation pellet)
Text: A) H^+ /K^+ - ATPase inhibition
The most efficient method for reducing acid-related gastrointestinal disorder is through the inhibition of proton pump on the gastric parietal cell. The proton pump (H^+ /K^+ ATPase) is a membrane bound enzyme that exchanges protons for K^+ ions across the apical surface. Associated with this is a K^+ /Cl^- cotransporter which recycles the K^+ together with the Cl^- across the apical surface where HCl is formed by the Cl^- ions together with the secreted H^+. This enzyme has an ATP hydrolyzing activity which requires intravesicular K^+.
Principle [formula] Pi liberated is estimated, the amount of Pi liberated is proportional to the enzyme activity.
(i) Preparation of H^+ /K^+ - ATPase […]
Assay is carried out according to the protocol described by Beil, R (Beil, R. Br. J. Pharmacol, 1984, 82:651). […] After incubation for 15 min. at 37° C., the reaction is stopped by adding equal volume of phosphate reagent and the Pi produced by the hydrolysis of ATP is determined by the method of Lin et al. (Lin T -I. & Morales, M. F. Anal. Biochem. 1977, 77:10). The H^+ /K^+ - ATPase activity is calculated by subtracting the basal activity (in absence of KCl) from the rate of hydrolysis of ATP in the presence of K^+. The percent inhibition were determined for the test compounds.

T1 sequence (P27112 2-1035 limits assumed): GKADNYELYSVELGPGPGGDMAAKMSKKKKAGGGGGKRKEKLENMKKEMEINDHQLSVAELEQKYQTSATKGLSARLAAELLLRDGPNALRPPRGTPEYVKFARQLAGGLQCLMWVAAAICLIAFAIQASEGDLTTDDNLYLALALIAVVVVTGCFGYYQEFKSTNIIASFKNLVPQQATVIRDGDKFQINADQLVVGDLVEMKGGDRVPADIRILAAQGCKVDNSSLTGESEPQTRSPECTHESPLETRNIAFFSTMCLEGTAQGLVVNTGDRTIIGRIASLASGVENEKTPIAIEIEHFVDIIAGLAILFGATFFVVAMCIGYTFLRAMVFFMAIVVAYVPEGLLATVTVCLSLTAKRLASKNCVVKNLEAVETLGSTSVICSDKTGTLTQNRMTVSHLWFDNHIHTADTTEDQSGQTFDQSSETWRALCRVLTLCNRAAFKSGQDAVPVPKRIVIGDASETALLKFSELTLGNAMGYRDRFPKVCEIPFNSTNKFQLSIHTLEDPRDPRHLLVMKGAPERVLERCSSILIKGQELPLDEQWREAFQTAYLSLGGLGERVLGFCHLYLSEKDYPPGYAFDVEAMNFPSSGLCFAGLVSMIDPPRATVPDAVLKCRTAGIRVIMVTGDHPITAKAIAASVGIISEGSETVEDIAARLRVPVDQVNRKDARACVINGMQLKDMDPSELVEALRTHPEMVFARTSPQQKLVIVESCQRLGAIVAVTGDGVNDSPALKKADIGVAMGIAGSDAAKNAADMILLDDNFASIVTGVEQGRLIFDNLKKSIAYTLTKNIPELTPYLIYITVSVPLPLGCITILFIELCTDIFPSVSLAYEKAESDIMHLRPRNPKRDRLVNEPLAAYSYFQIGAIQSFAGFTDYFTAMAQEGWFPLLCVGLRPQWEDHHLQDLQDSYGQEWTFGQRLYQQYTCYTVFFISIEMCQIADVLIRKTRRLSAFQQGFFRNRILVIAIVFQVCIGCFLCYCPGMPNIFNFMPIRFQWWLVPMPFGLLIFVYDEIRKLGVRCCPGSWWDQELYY
T1 sequence (P18597 whole entry partner): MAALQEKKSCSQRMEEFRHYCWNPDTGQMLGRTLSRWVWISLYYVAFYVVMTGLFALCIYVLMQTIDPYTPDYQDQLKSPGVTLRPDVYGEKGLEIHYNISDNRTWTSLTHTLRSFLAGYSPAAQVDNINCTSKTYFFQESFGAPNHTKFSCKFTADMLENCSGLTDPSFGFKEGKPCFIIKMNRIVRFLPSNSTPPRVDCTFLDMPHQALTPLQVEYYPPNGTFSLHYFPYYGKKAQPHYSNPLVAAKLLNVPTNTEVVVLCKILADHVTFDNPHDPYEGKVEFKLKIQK

SMILES: COc1ccnc(C[S+]([O-])c2nc3cc(N4CCCCCC4)ccc3[nH]2)c1C (stereo not shown) [Example 91, 2-[[-(4-Methoxy-3-methyl)pyridin-2-yl]methylsulfinyl]-5-(hexamethyleneimin-1-yl)-1H-benzimidazole]
- inhibition in vivo at 10 mg/kg [1]: 97%

SMILES: COc1ccnc(C[S+]([O-])c2nc3cc(N4CCCCCC4)c(F)cc3[nH]2)c1C (stereo not shown) [Example 81, 2-[[(4-Methoxy-3-methyl)pyridin-2-yl]methylsulfinyl]-6-fluoro-5-(hexamethyleneimin-1-yl)-1H-benzimidazole, sodium salt]
- % Inhibition at 10 mg/kg [1]: 100%

SMILES: COc1ccnc(C[S+]([O-])c2nc3cc(N4CCCCC4)c(F)cc3[nH]2)c1C (stereo not shown) [Example 67, 2-[[(4-Methoxy-3-methyl)pyridin-2-yl]methylsulfinyl]-6-fluoro-5-(piperidin-1-yl)-1H-benzimidazole]
- inhibition in vivo at 10 mg/kg [1]: 100%

- IC50 [2]: 4.35 ± 0.56 µM
SMILES: COc1ccc2[nH]c([S+]([O-])Cc3ncc(C)c(OC)c3C)nc2c1 (stereo not shown) [Omeprazole, 2-[[(4-methoxy-3,5-dimethyl)pyridin-2-yl]methylsulfinyl]-5-methoxy-1H-benzimidazole, reference compound]
- inhibition in vivo at 10 mg/kg [1]: 75%
- ED50 [1]: 4.96 ± 0.5 mg/kg

SMILES: Cc1c(N2CCOCC2)ccnc1C[S+]([O-])c1nc2cc(N3CCCCCC3)c(F)cc2[nH]1 (stereo not shown) [Example 82, 2-[[(4-(Morpholin-1-yl)-3-methyl)pyridin-2-yl]methylsulfinyl]-6-fluoro-5-(hexamethyleneimin-1-yl)-1H-benzimidazole]
- inhibition in vivo at 10 mg/kg [1]: 100%

SMILES: COc1ccnc(C[S+]([O-])c2nc3cc(N4CCOCC4)ccc3[nH]2)c1C (stereo not shown) [Example 87, 2-[[(4-Methoxy-3-methyl)pyridin-2-yl]methylsulfinyl]-5-(morpholin-1-yl)-1H-benzimidazole]
- inhibition in vivo at 10 mg/kg [1]: 90%

SMILES: COc1ccnc(C[S+]([O-])c2nc3cc(N4CCCC4)c(F)cc3[nH]2)c1C (stereo not shown) [Example 84, 2-[[(4-Methoxy-3-methyl)pyridin-2-yl]methylsulfinyl]-6-fluoro-5-(pyrrolidin-1-yl)-1H-benzimidazole]
- inhibition in vivo at 10 mg/kg [1]: 93%

SMILES: COc1ccnc(C[S+]([O-])c2nc3cc(N4CCN(C(=O)OC(C)(C)C)CC4)c(F)cc3[nH]2)c1C (stereo not shown) [Example 73, 2-[[(4-Methoxy-3methyl)pyridin-2-yl]methylsulfinyl]-6-fluoro-5-(4-t-butyloxycarbonylpiperazin-1-yl)-1H-benzimidazole]
- inhibition in vivo at 10 mg/kg [1]: 93%

SMILES: COc1ccnc(C[S+]([O-])c2nc3cc(N4CCN(C(=O)OC(C)(C)C)CC4)ccc3[nH]2)c1C (stereo not shown) [Example 90, 2-[[(4-Methoxy-3-methyl)pyridin-2-yl]methylsulfinyl]-5-(4-t-butyloxycarbonylpiperazin-1-yl)-1H-benzimidazole]
- inhibition in vivo at 10 mg/kg [1]: 100%

SMILES: COc1ccnc(C[S+]([O-])c2nc3cc(N4CCCCCC4)c(F)cc3[nH]2)c1C (stereo not shown) [Example 80, 2-[[(4-Methoxy-3-methyl)pyridin-2-yl]methylsulfinyl]-6-fluoro-5-(hexamethyleneimin-1-yl)-1H-benzimidazole]
- inhibition in vivo at 10 mg/kg [1]: 100%

- IC50 [2]: 2.6 µM
SMILES: COc1ccnc(C[S+]([O-])c2nc3cc(N4CCOCC4)c(F)cc3[nH]2)c1C (stereo not shown) [Example 57, 2-[[(4-Methoxy-3-methyl)pyridin-2-yl]methylsulfinyl]-6-fluoro-5-(morpholin-1-yl)-1H-benzimidazole]
- ED50 [1]: 3 ± 0.2 mg/kg

SMILES: Cc1c(N2CCCCC2)ccnc1C[S+]([O-])c1nc2cc(N3CCCCC3)c(F)cc2[nH]1 (stereo not shown) [Example 69]
- inhibition in vivo at 10 mg/kg [1]: 97%

SMILES: COc1ccnc(C[S+]([O-])c2nc3cc(N4CCCCC4)c(F)cc3[nH]2)c1C (stereo not shown) [Example 68, 2-[[(4-Methoxy-3-methyl)pyridin-2-yl]metlhylsulfinyl]-6-fluoro-5-(piperidin-1-yl)-1H-benzimidazole, sodium salt]
- % Inhibition at 10 mg/kg [1]: 100%
